We go through 34 molecules from US20220362381A1, “REMOTELY TRIGGERED THERAPY” (Bambu Vault LLC, priority 2019, published 2022).

SMILES strings stand for the structures.

The conditions of data set [1]: likelihood of association with drug induced liver injury; cited from earlier work.
Data set [2] can be described thus: Leaching testing of curcumin/Epolight IR 1117 B-805 particles with and without VTMS shell (FIG. 13). Format: physicochemical. The note with it: B-805 particles with VTMS shell vs. without shell.
The nature of data set [3]: Stabilization effect of surfactant on tetrakis aminium dye during emulsification (Epolight 1117 retention). Format: physicochemical. Conditions: retention in particles after emulsification; surfactant in aqueous phase as in label. The protocol: IR absorbing agent weight ratio=4.4:1). The organic phase (polymer and IR absorbing agents dissolved in dichloromethane) was injected directly into the aqueous phase (PVA solution with SDS surfactant) at the tip of the Turrax's roto-stator (i.e. directly into the flow being sheared by the roto-stator). The shear mixing at 8000 RPM was continued for 30 minutes. The resulting mixture was decanted into an open-mouth container and stirred magnetically for 16 hours. A solid suspension of particles containing IR absorbing agent was obtained. The solid suspension was centrifuged at 5000 RPM for 30 minutes and the particles were collected. The collected particles were washed with distilled water by resuspending the particles into distilled water and centrifuging as before to collect the particles. This washing process was repeated three times to remove residual PVA. The resulting MMA/BMA copolymer particles containing IR absorbing agent were air-dried. In the emulsion method of encapsulation, a surfactant is necessary to help keep the emulsion stable. While Aerosol® TR-70 (sodium bis(tridecyl) sulfosuccinate) could be used as an emulsifier to prepare polymer particles encapsulating Epolight™ 1117 tetrakis aminium dye, TR-70 only provided limited stabilization effects on the tetrakis aminium dye. […]

As to `CCN1CCN(Cc2ccc(Nc3ncc(F)c(-c4cc(F)c5nc(C)n(C(C)C)c5c4)n3)nc2)CC1` [Abemaciclib], the “Likelihood Score” value in data set [1] is given as “E*”.

`CCS(=O)(=O)N1CC(CC#N)(n2cc(-c3ncnc4[nH]ccc34)cn2)C1` [Baricitinib]: the “Likelihood Score” value in data set [1] is reported as “E*”.

For the molecule `Cn1cnc2c(F)c(Nc3ccc(Br)cc3F)c(C(=O)NOCCO)cc21` [Binimetinib], in data set [1], the “Likelihood Score” value is “E*”.

On to `COc1cc(Nc2c(C#N)cnc3cc(OCCCN4CCN(C)CC4)c(OC)cc23)c(Cl)cc1Cl` [Bosutinib], for which, in data set [1], the “Likelihood Score” value is listed as “E*”.

In the case of `COc1cc(N2CCC(N3CCN(C)CC3)CC2)ccc1Nc1ncc(Cl)c(Nc2ccccc2P(C)(C)=O)n1` [Brigatinib], the “Likelihood Score” value in data set [1] is “E*”.

Regarding `COc1cc2nccc(Oc3ccc(NC(=O)C4(C(=O)Nc5ccc(F)cc5)CC4)cc3)c2cc1OC` [Cabozantinib], the “Likelihood Score” value in data set [1] was “E*”.

On to `COc1c(OCCCN2CCOCC2)ccc2c1N=C(NC(=O)c1cnc(N)nc1)N1CCN=C21` [Copanlisib], for which the “Likelihood Score” value in data set [1] is reported as “E*”.

As to `COc1cc(/C=C/C(=O)CC(=O)/C=C/c2ccc(O)c(OC)c2)ccc1O` [Curcumin, curcumin], the “reduction of leaching by the VTMS shell” value in data set [2] is listed as 70%.

With `CC(C)(C)c1nc(-c2cccc(NS(=O)(=O)c3c(F)cccc3F)c2F)c(-c2ccnc(N)n2)s1` [Dabrafenib], the “Likelihood Score” value in data set [1] was “E*”.

On to `COc1cc2ncnc(Nc3ccc(F)c(Cl)c3)c2cc1NC(=O)/C=C/CN1CCCCC1` [Dacomitinib], for which the “Likelihood Score” value in data set [1] was “E*”.

As for `C[C@H](Nc1ncnc2[nH]cnc12)c1cc2cccc(Cl)c2c(=O)n1-c1ccccc1` [Duvelisib], in data set [1], the “Likelihood Score” value is “E*”.

As to `CC(C)(O)CNc1nc(Nc2ccnc(C(F)(F)F)c2)nc(-c2cccc(C(F)(F)F)n2)n1` [Enasidenib], in data set [1], the “Likelihood Score” value is listed as “E*”.

In the case of `COC(=O)N[C@@H](C)CNc1nccc(-c2cn(C(C)C)nc2-c2cc(Cl)cc(NS(C)(=O)=O)c2F)n1` [Encorafenib], the “Likelihood Score” value in data set [1] is listed as “E*”.

Take `COc1cc(Nc2ncc(F)c(Nc3ccc4c(n3)N(COP(=O)(O)O)C(=O)C(C)(C)O4)n2)cc(OC)c1OC` [Fostamatinib]: in data set [1], the “Likelihood Score” value is listed as “E*”.

Take `CCc1nc(C(N)=O)c(Nc2ccc(N3CCC(N4CCN(C)CC4)CC3)c(OC)c2)nc1NC1CCOCC1` [Gilteritinib]: in data set [1], the “Likelihood Score” value is “E*”.

Regarding `CN1CC[C@@H](NC(=O)Nc2ccc(C#N)cc2)C[C@@H]1c1nc2ccccc2[nH]1` [Glasdegib], in data set [1], the “Likelihood Score” value is recorded as “E*”.

Turning to `N#Cc1ccnc(N2C(=O)CC[C@H]2C(=O)N(c2cncc(F)c2)[C@H](C(=O)NC2CC(F)(F)C2)c2ccccc2Cl)c1` [Ivosidenib], the “Likelihood Score” value in data set [1] is recorded as “E*”.

`CC(C)C[C@H](NC(=O)CNC(=O)c1cc(Cl)ccc1Cl)B(O)O` [Ixazomib]: in data set [1], the “Likelihood Score” value was “E*”.

In the case of `O=C(Nc1cnn2ccc(N3CCC[C@@H]3c3cc(F)ccc3F)nc12)N1CC[C@H](O)C1` [Larotrectinib], the “Likelihood Score” value in data set [1] is on record as “E*”.

For `C[C@H]1Oc2cc(cnc2N)-c2c(nn(C)c2C#N)CN(C)C(=O)c2ccc(F)cc21` [Lorlatinib], the “Likelihood Score” value in data set [1] is listed as “E*”.

For `CO[C@@H]1[C@H](N(C)C(=O)c2ccccc2)C[C@H]2O[C@]1(C)n1c3ccccc3c3c4c(c5c6ccccc6n2c5c31)C(=O)NC4` [Midostaurin], the “Likelihood Score” value in data set [1] is on record as “E*”.

For `CCOc1cc2ncc(C#N)c(Nc3ccc(OCc4ccccn4)c(Cl)c3)c2cc1NC(=O)/C=C/CN(C)C` [Neratinib], the “Likelihood Score” value in data set [1] is “E*”.

In the case of `COC(=O)c1ccc2c(c1)NC(=O)/C2=C(\Nc1ccc(N(C)C(=O)CN2CCN(C)CC2)cc1)c1ccccc1` [Nintedanib], the “Likelihood Score” value in data set [1] is on record as “E*”.

As to `NC(=O)c1cccc2cn(-c3ccc([C@@H]4CCCNC4)cc3)nc12` [Niraparib], the “Likelihood Score” value in data set [1] is reported as “E*”.

In the case of `CC(=O)c1c(C)c2cnc(Nc3ccc(N4CCNCC4)cn3)nc2n(C2CCCC2)c1=O` [Palbociclib], in data set [1], the “Likelihood Score” value was “E*”.

With `Cc1ccc(C(=O)Nc2ccc(CN3CCN(C)CC3)c(C(F)(F)F)c2)cc1C#Cc1cnc2cccnn12` [Ponatinib], the “Likelihood Score” value in data set [1] is listed as “E*”.

Consider `CNCc1ccc(-c2[nH]c3cc(F)cc4c3c2CCNC4=O)cc1` [Rucaparib], for which the “Likelihood Score” value in data set [1] is recorded as “D*”.

On to `N#CC[C@H](C1CCCC1)n1cc(-c2ncnc3[nH]ccc23)cn1` [Ruxolitinib], for which the “Likelihood Score” value in data set [1] is “E*”.

Turning to `CCCCCCCCCCCCOS(=O)(=O)[O-].[Na+]` [Sodium dodecyl sulfate, sodium dodecyl sulfate], in data set [3], the “% Epolight ™ 1117 Retention” value is listed as 85-90%.

Turning to `Cc1c(C(=O)Nc2ccc(N3C[C@@H](C)O[C@@H](C)C3)nc2)cccc1-c1ccc(OC(F)(F)F)cc1` [Sonidegib], in data set [1], the “Likelihood Score” value is “E*”.

Consider `CCCCCCCCCCCCCOC(=O)CC(C(=O)OCCCCCCCCCCCCC)S(=O)(=O)O.[Na]` (stereo not shown) [TR-70, sodium bis(tridecyl) sulfosuccinate], for which the “% Epolight ™ 1117 Retention” value in data set [3] was determined as 50%.

Turning to `Cn1ncnc1[C@H]1c2n[nH]c(=O)c3cc(F)cc(c23)N[C@@H]1c1ccc(F)cc1` [Talazoparib], the “Likelihood Score” value in data set [1] is reported as “E*”.

Regarding `COc1cc2c(Nc3ccc(Br)cc3F)ncnc2cc1OCC1CCN(C)CC1` [Vandetanib], the “Likelihood Score” value in data set [1] is “E*”.

For `CCCS(=O)(=O)Nc1ccc(F)c(C(=O)c2c[nH]c3ncc(-c4ccc(Cl)cc4)cc23)c1F` [Vemurafenib], the “Likelihood Score” value in data set [1] is on record as “E*”.
